Columns and labels:
Type in all cases: in vivo
[1] = test system: sedge, umbrella (small-flower umbrella sedge, Cyperus difformis); assay: Test B flooded paddy test; design: key: 0 = no effect, 100 = complete control; settings: Flood, 250 g ai/ha applied to paddy water at 2-leaf stage; visually evaluated after 13 to 15 days; scale 0 (no effect) to 100 (complete control)
Protocol: (§1) Plant species in the flooded paddy test selected from rice (Oryza sativa), sedge, umbrella (small-flower umbrella sedge, Cyperus difformis), ducksalad (Heteranthera limosa), and barnyardgrass (Echinochloa crus-galli) were grown to the 2-leaf stage for testing. At time of treatment, test pots were flooded to 3 cm above the soil surface, treated by application of test compounds directly to the paddy water, and then maintained at that water depth for the duration of the test. Treated plants and controls were maintained in a greenhouse for 13 to 15 days, after which time all species were compared to controls and visually evaluated. Plant response ratings, summarized in Table B, are based on a scale of 0 to 100 where 0 is no effect and 100 is complete control. A dash (-) response means no test result.

[2] = test system: rice (Oryza sativa); assay: Test B flooded paddy test; design: key: 0 = no effect, 100 = complete control; settings: Flood, 250 g ai/ha applied to paddy water at 2-leaf stage; visually evaluated after 13 to 15 days; scale 0 (no effect) to 100 (complete control)
Protocol: as §1

[3] = test system: barnyardgrass (Echinochloa crus-galli); assay: Test B flooded paddy test; design: key: 0 = no effect, 100 = complete control; settings: Flood, 250 g ai/ha applied to paddy water at 2-leaf stage; visually evaluated after 13 to 15 days; scale 0 (no effect) to 100 (complete control)
Protocol: as §1

[4] = test system: ducksalad (Heteranthera limosa); assay: Test B flooded paddy test; design: key: 0 = no effect, 100 = complete control; settings: Flood, 250 g ai/ha applied to paddy water at 2-leaf stage; visually evaluated after 13 to 15 days; scale 0 (no effect) to 100 (complete control)
Protocol: as §1

[5] = test system: pigweed (Amaranthus retroflexus); assay: Test A preemergence, directed soil spray; settings: approx. 10 days
Description: (§2) Seeds of plant species selected from barnyardgrass (Echinochloa crus-galli), kochia (Kochia scoparia), ragweed (common ragweed, Ambrosia elatior), Italian ryegrass (Lolium multiflorum), giant foxtail (Setaria faberii), and pigweed (Amaranthus retroflexus) were planted into a blend of loam soil and sand and treated preemergence with a directed soil spray using test chemicals formulated in a non-phytotoxic solvent mixture which included a surfactant. At the same time, plants selected from these weed species and also wheat (Triticum aestivum), corn (Zea mays), blackgrass (Alopecurus myosuroides), and galium (catchweed bedstraw, Galium aparine) were planted in pots containing the same blend of loam soil and sand and treated with postemergence applications of test chemicals formulated in the same manner. Plants ranged in height from 2 to 10 cm and were in the one- to two-leaf stage for the postemergence treatment. Treated plants and untreated controls were maintained in a greenhouse for approximately 10 days, after which time all treated plants were compared to untreated controls and visually evaluated for injury. Plant response ratings, summarized in Table A, are based on a 0 to 100 scale where 0 is no effect and 100 is complete control. A dash (-) response means no test result.

[6] = test system: ragweed (common ragweed, Ambrosia elatior); assay: Test A preemergence, directed soil spray; settings: approx. 10 days
Description: as §2

[7] = test system: barnyardgrass (Echinochloa crus-galli); assay: Test A preemergence, directed soil spray; settings: approx. 10 days
Description: as §2

[8] = test system: kochia (Kochia scoparia); assay: Test A preemergence, directed soil spray; settings: approx. 10 days
Description: as §2

[9] = test system: Italian ryegrass (Lolium multiflorum); assay: Test A preemergence, directed soil spray; settings: approx. 10 days
Description: as §2

[10] = test system: giant foxtail (Setaria faberii); assay: Test A preemergence, directed soil spray; settings: approx. 10 days
Description: as §2

[11] = test system: pigweed (Amaranthus retroflexus); assay: Test A postemergence application; settings: approx. 10 days
Description: as §2

[12] = test system: galium (catchweed bedstraw, Galium aparine); assay: Test A postemergence application; settings: approx. 10 days
Description: as §2

[13] = test system: wheat (Triticum aestivum); assay: Test A postemergence application; settings: approx. 10 days
Description: as §2

[14] = test system: ragweed (common ragweed, Ambrosia elatior); assay: Test A postemergence application; settings: approx. 10 days
Description: as §2

[15] = test system: corn (Zea mays); assay: Test A postemergence application; settings: approx. 10 days
Description: as §2

[16] = test system: barnyardgrass (Echinochloa crus-galli); assay: Test A postemergence application; settings: approx. 10 days
Description: as §2

[17] = test system: kochia (Kochia scoparia); assay: Test A postemergence application; settings: approx. 10 days
Description: as §2

[18] = test system: Italian ryegrass (Lolium multiflorum); assay: Test A postemergence application; settings: approx. 10 days
Description: as §2

[19] = test system: giant foxtail (Setaria faberii); assay: Test A postemergence application; settings: approx. 10 days
Description: as §2

[20] = test system: blackgrass (Alopecurus myosuroides); assay: Test A postemergence application; settings: approx. 10 days
Description: as §2

For O=c1cccc(Oc2ncc(Cl)cn2)n1-c1cccc(C(F)(F)F)c1 [Compound 2, 6-[(5-chloro-2-pyrimidinyl)oxy]-1-[3-(trifluoromethyl)phenyl]-2(1H)-pyridinone], the “Plant response rating, Sedge, Umbrella” value [1] was 0, the “Plant response rating, Rice” value [2] was 0 and the “Plant response rating, Barnyardgrass” value [3] was 0. The “Plant response rating, Ducksalad” value [4] was 0, the “Plant response rating (0 to 100 scale, 0 no effect, 100 complete control), Pigweed” value ([5]; 125 g ai/ha) was 0 and the “Plant response rating (0 to 100 scale, 0 no effect, 100 complete control), Pigweed” value ([5]; 500 g ai/ha) was 20. For the same compound, the “Plant response rating (0 to 100 scale, 0 no effect, 100 complete control), Ragweed” value ([6]; 125 g ai/ha) was 0, the “Plant response rating (0 to 100 scale, 0 no effect, 100 complete control), Ragweed” value ([6]; 500 g ai/ha) was 0 and the “Plant response rating (0 to 100 scale, 0 no effect, 100 complete control), Barnyardgrass” value ([7]; 125 g ai/ha) was 0. For the same compound, the “Plant response rating (0 to 100 scale, 0 no effect, 100 complete control), Barnyardgrass” value ([7]; 500 g ai/ha) was 0, the “Plant response rating (0 to 100 scale, 0 no effect, 100 complete control), Kochia” value ([8]; 125 g ai/ha) was 0 and the “Plant response rating (0 to 100 scale, 0 no effect, 100 complete control), Kochia” value ([8]; 500 g ai/ha) was 30. The “Plant response rating (0 to 100 scale, 0 no effect, 100 complete control), Ryegrass, Italian” value ([9]; 125 g ai/ha) was 0, the “Plant response rating (0 to 100 scale, 0 no effect, 100 complete control), Ryegrass, Italian” value ([9]; 500 g ai/ha) was 0 and the “Plant response rating (0 to 100 scale, 0 no effect, 100 complete control), Foxtail, Giant” value ([10]; 125 g ai/ha) was 0. For the same compound, the “Plant response rating (0 to 100 scale, 0 no effect, 100 complete control), Foxtail, Giant” value ([10]; 500 g ai/ha) was 90, the “Plant response rating (0 to 100 scale, 0 no effect, 100 complete control), Pigweed” value ([11]; 125 g ai/ha) was 30 and the “Plant response rating (0 to 100 scale, 0 no effect, 100 complete control), Pigweed” value ([11]; 500 g ai/ha) was 80. The “Plant response rating (0 to 100 scale, 0 no effect, 100 complete control), Galium” value ([12]; 125 g ai/ha) was 20, the “Plant response rating (0 to 100 scale, 0 no effect, 100 complete control), Galium” value ([12]; 500 g ai/ha) was 60 and the “Plant response rating (0 to 100 scale, 0 no effect, 100 complete control), Wheat” value ([13]; 125 g ai/ha) was 0. For the same compound, the “Plant response rating (0 to 100 scale, 0 no effect, 100 complete control), Wheat” value ([13]; 500 g ai/ha) was 20, the “Plant response rating (0 to 100 scale, 0 no effect, 100 complete control), Ragweed” value ([14]; 125 g ai/ha) was 0 and the “Plant response rating (0 to 100 scale, 0 no effect, 100 complete control), Ragweed” value ([14]; 500 g ai/ha) was 0. The “Plant response rating (0 to 100 scale, 0 no effect, 100 complete control), Corn” value ([15]; 125 g ai/ha) was 0, the “Plant response rating (0 to 100 scale, 0 no effect, 100 complete control), Corn” value ([15]; 500 g ai/ha) was 20 and the “Plant response rating (0 to 100 scale, 0 no effect, 100 complete control), Barnyardgrass” value ([16]; 125 g ai/ha) was 0. For the same compound, the “Plant response rating (0 to 100 scale, 0 no effect, 100 complete control), Barnyardgrass” value ([16]; 500 g ai/ha) was 0, the “Plant response rating (0 to 100 scale, 0 no effect, 100 complete control), Kochia” value ([17]; 125 g ai/ha) was 30 and the “Plant response rating (0 to 100 scale, 0 no effect, 100 complete control), Kochia” value ([17]; 500 g ai/ha) was 90. The “Plant response rating (0 to 100 scale, 0 no effect, 100 complete control), Ryegrass, Italian” value ([18]; 125 g ai/ha) was 0, the “Plant response rating (0 to 100 scale, 0 no effect, 100 complete control), Ryegrass, Italian” value ([18]; 500 g ai/ha) was 0 and the “Plant response rating (0 to 100 scale, 0 no effect, 100 complete control), Foxtail, Giant” value ([19]; 125 g ai/ha) was 0. For the same compound, the “Plant response rating (0 to 100 scale, 0 no effect, 100 complete control), Foxtail, Giant” value ([19]; 500 g ai/ha) was 60, the “Plant response rating (0 to 100 scale, 0 no effect, 100 complete control), Blackgrass” value ([20]; 125 g ai/ha) was 0 and the “Plant response rating (0 to 100 scale, 0 no effect, 100 complete control), Blackgrass” value ([20]; 500 g ai/ha) was 0.

O=c1cccc(Oc2ncc(Cl)cn2)n1-c1cccc(OC(F)(F)F)c1 [Compound 3, 6-[(5-chloro-2-pyrimidinyl)oxy]-1-[3-(trifluoromethoxy)phenyl]-2(1H)-pyridinone] was tested, and the “Plant response rating, Sedge, Umbrella” value [1] was 0, the “Plant response rating, Rice” value [2] was 0 and the “Plant response rating, Barnyardgrass” value [3] was 0. The “Plant response rating, Ducksalad” value [4] was 0, the “Plant response rating (0 to 100 scale, 0 no effect, 100 complete control), Pigweed” value ([5]; 1000 g ai/ha) was 70 and the “Plant response rating (0 to 100 scale, 0 no effect, 100 complete control), Ragweed” value ([6]; 1000 g ai/ha) was 20. The “Plant response rating (0 to 100 scale, 0 no effect, 100 complete control), Barnyardgrass” value ([7]; 1000 g ai/ha) was 80, the “Plant response rating (0 to 100 scale, 0 no effect, 100 complete control), Kochia” value ([8]; 1000 g ai/ha) was 40 and the “Plant response rating (0 to 100 scale, 0 no effect, 100 complete control), Ryegrass, Italian” value ([9]; 1000 g ai/ha) was 50. The “Plant response rating (0 to 100 scale, 0 no effect, 100 complete control), Foxtail, Giant” value ([10]; 1000 g ai/ha) was 100, the “Plant response rating (0 to 100 scale, 0 no effect, 100 complete control), Pigweed” value ([11]; 1000 g ai/ha) was 90 and the “Plant response rating (0 to 100 scale, 0 no effect, 100 complete control), Galium” value ([12]; 1000 g ai/ha) was 100. For the same compound, the “Plant response rating (0 to 100 scale, 0 no effect, 100 complete control), Wheat” value ([13]; 1000 g ai/ha) was 30, the “Plant response rating (0 to 100 scale, 0 no effect, 100 complete control), Ragweed” value ([14]; 1000 g ai/ha) was 30 and the “Plant response rating (0 to 100 scale, 0 no effect, 100 complete control), Corn” value ([15]; 1000 g ai/ha) was 20. The “Plant response rating (0 to 100 scale, 0 no effect, 100 complete control), Barnyardgrass” value ([16]; 1000 g ai/ha) was 70, the “Plant response rating (0 to 100 scale, 0 no effect, 100 complete control), Kochia” value ([17]; 1000 g ai/ha) was 90 and the “Plant response rating (0 to 100 scale, 0 no effect, 100 complete control), Ryegrass, Italian” value ([18]; 1000 g ai/ha) was 30. The “Plant response rating (0 to 100 scale, 0 no effect, 100 complete control), Foxtail, Giant” value ([19]; 1000 g ai/ha) was 100 and the “Plant response rating (0 to 100 scale, 0 no effect, 100 complete control), Blackgrass” value ([20]; 1000 g ai/ha) was 40.
